Earlier results on 10 compounds are cited in patent US20080057111A1 (priority 2006, published 2008).

Test system in the first data set: not given
Conditions: not given
For `O=C(O)c1ccccc1` [benzoic acid], the “anti-endotoxin activity in vivo” value was “anti-endotoxin activity”. Turning to `O=C(O)c1ccccc1O` [salicylic acid], the “anti-endotoxin activity in vivo” value was “anti-endotoxin activity”. As for `COc1cc(C(=O)O)cc(OC)c1O` [syringic acid], the “anti-endotoxin activity in vivo” value is “anti-endotoxin activity”.

For the compound `Nc1ccccc1C(=O)O` [σ-aminobenzoic acid], the “anti-endotoxin activity in vivo” value is recorded as “anti-endotoxin activity”.

The next data set deals with severe acute respiratory syndrome (SARS) virus. The conditions noted are these: recent report.
For the compound `C=CCC(=NOS(=O)(=O)O)S[C@@H]1O[C@H](CO)[C@@H](O)[C@H](O)[C@H]1O` (stereo in doubt) [sinigrin], the “effect on SARS virus” value is recorded as “inhibitory effect”. In the case of `CC[C@H](CC[C@@H](C)[C@H]1CC[C@H]2[C@@H]3CC=C4C[C@@H](O)CC[C@]4(C)[C@H]3CC[C@]12C)C(C)C` [beta-sitosterol], the “effect on SARS virus” value is given as “inhibitory effect”. For `O=c1c(-c2ccc(O)cc2)coc2cc(O)ccc12` [daidzein], the “effect on SARS virus” value is on record as “inhibitory effect”. On to `COc1ccc([C@@H]2CC(=O)c3c(O)cc(O)cc3O2)cc1O` [hespertin], for which the “effect on SARS virus” value was “inhibitory effect”. With `OC[C@H]1O[C@@H](Oc2c[nH]c3ccccc23)[C@H](O)[C@@H](O)[C@@H]1O` [indican], the “effect on SARS virus” value is reported as “inhibitory effect”. Consider `O=C1/C(=C2\Nc3ccccc3C2=O)Nc2ccccc21` [indigo], for which the “effect on SARS virus” value is on record as “inhibitory effect”.
